Source: US6617166B2, “Measurement of accelerated whole blood clotting time” (Prophylaxis Limited, priority 1999, dated 2003)
“And” between values parts separate entries of the source, which are not always exact repeats. Identical values can stand only once. Marks after values point to notes of the source that are not given here.

Key:
[1] = system: native whole blood; test: Accelerated whole blood clotting time (AWBCT), native blood; type: cell-based
Protocol: (§1) Whilst native blood is tested immediately after collection, for example, within two minutes, citrated blood may be stored for a longer period, before being recalcified immediately before the test is conducted. The interval between blood collection and testing may be on the order of one hour. It should be noted that shorter collection intervals give more reliable results.
(§2) The test is performed on native freshly drawn venous blood, or recalcified citrated blood or heparinised blood.
(§3) 100 μL of saline control or a range of concentration of a platelet agonists are added to the wells of a coagulometer and then 200 μL of native or RCCWB whole blood added and the coagulation time recorded. The potential agonists are; collagen, ADP, adrenalin, platelet activating factor, thrombin. It is anticipated that the agonist appropriate for specific roles will emerge in the course of clinical studies.
(§4) Numbers are the time to coagulation in seconds. The results given are the averages of duplicates, unless otherwise indicated by an asterix, (corresponding to single coagulation times where spurious results have not been averaged).

[2] = system: recalcified citrated whole blood; test: Accelerated whole blood clotting time (AWBCT), recalcified citrated whole blood (RCCWB); type: cell-based
Protocol: Comparison of the results using native blood and citrated blood was made. 9 parts of citrated blood was added to 1 part calcium n chloride 133 mM, mixed and aliquotes of the recalcified citrated blood added to the wells of the coagulometer containing duplicates of saline control and dilutions of collagen. A concentration of […] calcium chloride is considered to be optimal; but concentrations in the range of, for example, 110-140 mM may be used. However, it should be noted that the length and un-reliability of coagulation times increase with concentrations further from the optimum, especially with higher values.
as §1, §2, §3, §4

Nc1ncnc2c1ncn2[C@@H]1O[C@H](COP(=O)(O)OP(=O)(O)O)[C@@H](O)[C@H]1O [ADP, adenosine diphosphate]
time to coagulation (AWBCT) ([1]; ADP 6.25 μM): 265 s
time to coagulation (AWBCT) ([1]; ADP 12.5 μM): 269 s
time to coagulation (AWBCT) ([1]; ADP 25 μM): 272 s
time to coagulation (AWBCT) ([1]; ADP 50 μM): 255 s
time to coagulation (AWBCT) ([2]; recalcified whole blood, ADP 12.5 μM, collection interval +65 mins): 329 s
time to coagulation (AWBCT) ([2]; recalcified whole blood, ADP 25 μM, collection interval +65 mins): 358 s
time to coagulation (AWBCT) ([2]; recalcified whole blood, ADP 50 μM, collection interval +65 mins): 348 s
time to coagulation (AWBCT) ([2]; recalcified whole blood, ADP 100 μM, collection interval +65 mins): 341 s

CC(=O)Oc1ccccc1C(=O)O [Aspirin]
time to coagulation (AWBCT) ([2]; RCCWB, aspirin 40 μg/ml, collagen 0.125 mg/ml, collection interval +135 min): 275 s
time to coagulation (AWBCT) ([2]; RCCWB, aspirin 40 μg/ml, collagen 0.25 mg/ml, collection interval +135 min): 274 s
time to coagulation (AWBCT) ([2]; RCCWB, aspirin 40 μg/ml, collagen 0.5 mg/ml, collection interval +135 min): 216 s
time to coagulation (AWBCT) ([2]; RCCWB, aspirin 40 μg/ml, collagen 1.0 mg/ml, collection interval +135 min): 184 s
time to coagulation (AWBCT) ([2]; RCCWB, aspirin 40 μg/ml, saline, collection interval +135 min): 500 s
time to coagulation (AWBCT) ([2]; RCCWB, aspirin 80 μg/ml, collagen 0.125 mg/ml, collection interval +106 min): 224 s
time to coagulation (AWBCT) ([2]; RCCWB, aspirin 80 μg/ml, collagen 0.25 mg/ml, collection interval +106 min): 236 s
time to coagulation (AWBCT) ([2]; RCCWB, aspirin 80 μg/ml, collagen 0.5 mg/ml, collection interval +106 min): 218* seconds
time to coagulation (AWBCT) ([2]; RCCWB, aspirin 80 μg/ml, collagen 1.0 mg/ml, collection interval +106 min): 212 s
time to coagulation (AWBCT) ([2]; RCCWB, aspirin 80 μg/ml, saline, collection interval +106 min): 468 s

Heparin
time to coagulation (AWBCT) ([2]; RCCWB + Heparin 1.25 u/ml, collagen 0.125 mg/ml): 325* seconds
time to coagulation (AWBCT) ([2]; RCCWB + Heparin 1.25 u/ml, collagen 0.25 mg/ml): 302 s
time to coagulation (AWBCT) ([2]; RCCWB + Heparin 1.25 u/ml, collagen 0.5 mg/ml): 71 s
time to coagulation (AWBCT) ([2]; RCCWB + Heparin 1.25 u/ml, collagen 1.0 mg/ml): 54 s
time to coagulation (AWBCT) ([2]; RCCWB + Heparin 1.25 u/ml, saline): 500+ seconds
time to coagulation (AWBCT) ([2]; RCCWB + Heparin 2.5 u/ml, collagen 0.125 mg/ml): 340 s
time to coagulation (AWBCT) ([2]; RCCWB + Heparin 2.5 u/ml, collagen 0.25 mg/ml): 405 s
time to coagulation (AWBCT) ([2]; RCCWB + Heparin 2.5 u/ml, collagen 0.5 mg/ml): 61 s
time to coagulation (AWBCT) ([2]; RCCWB + Heparin 2.5 u/ml, collagen 1.0 mg/ml): 41 s
time to coagulation (AWBCT) ([2]; RCCWB + Heparin 2.5 u/ml, saline): 600+ seconds
time to coagulation (AWBCT) ([2]; RCCWB, Heparin 5.0 u/ml, collagen 0.125 mg/ml): 600+ seconds
time to coagulation (AWBCT) ([2]; RCCWB, Heparin 5.0 u/ml, collagen 0.25 mg/ml): 600+ seconds
time to coagulation (AWBCT) ([2]; RCCWB, Heparin 5.0 u/ml, collagen 0.5 mg/ml): 48 s
time to coagulation (AWBCT) ([2]; RCCWB, Heparin 5.0 u/ml, collagen 1.0 mg/ml): 31 s
time to coagulation (AWBCT) ([2]; RCCWB, Heparin 5.0 u/ml, saline): 600+ seconds
time to coagulation (AWBCT) ([2]; RCCWB, Heparin 10 u/ml, collagen 0.125 mg/ml): 600+ seconds
time to coagulation (AWBCT) ([2]; RCCWB, Heparin 10 u/ml, collagen 0.25 mg/ml): 600+ seconds
time to coagulation (AWBCT) ([2]; RCCWB, Heparin 10 u/ml, collagen 0.5 mg/ml): 34 s
time to coagulation (AWBCT) ([2]; RCCWB, Heparin 10 u/ml, collagen 1.0 mg/ml): 27 s
time to coagulation (AWBCT) ([2]; RCCWB, Heparin 10 u/ml, saline): 600+ seconds

Low Molecular Weight Heparin [LMWH]
time to coagulation (AWBCT) ([1]; LMWH 0.25 u/ml, collagen 0.125 mg/ml): 233 s
time to coagulation (AWBCT) ([1]; LMWH 0.25 u/ml, collagen 0.25 mg/ml): 224 s
time to coagulation (AWBCT) ([1]; LMWH 0.25 u/ml, collagen 0.5 mg/ml): 204* seconds
time to coagulation (AWBCT) ([1]; LMWH 0.25 u/ml, collagen 1.0 mg/ml): 64 s
time to coagulation (AWBCT) ([1]; LMWH 0.25 u/ml, saline): 500+ seconds
time to coagulation (AWBCT) ([1]; LMWH 0.5 u/ml, collagen 0.125 mg/ml): 226 s
time to coagulation (AWBCT) ([1]; LMWH 0.5 u/ml, collagen 0.25 mg/ml): 228 s
time to coagulation (AWBCT) ([1]; LMWH 0.5 u/ml, collagen 0.5 mg/ml): 41 s
time to coagulation (AWBCT) ([1]; LMWH 0.5 u/ml, collagen 1.0 mg/ml): 46 s
time to coagulation (AWBCT) ([1]; LMWH 0.5 u/ml, saline): 500+ seconds
time to coagulation (AWBCT) ([1]; LMWH 1.0 u/ml, collagen 0.125 mg/ml): 318 s
time to coagulation (AWBCT) ([1]; LMWH 1.0 u/ml, collagen 0.25 mg/ml): 259 s
time to coagulation (AWBCT) ([1]; LMWH 1.0 u/ml, collagen 0.5 mg/ml): 48* seconds
time to coagulation (AWBCT) ([1]; LMWH 1.0 u/ml, collagen 1.0 mg/ml): 27* seconds
time to coagulation (AWBCT) ([1]; LMWH 1.0 u/ml, saline): 500+ seconds
time to coagulation (AWBCT) ([1]; LMWH 2.0 u/ml, collagen 0.125 mg/ml): 500+ seconds
time to coagulation (AWBCT) ([1]; LMWH 2.0 u/ml, collagen 0.25 mg/ml): 500+ seconds
time to coagulation (AWBCT) ([1]; LMWH 2.0 u/ml, collagen 0.5 mg/ml): 500+ seconds
time to coagulation (AWBCT) ([1]; LMWH 2.0 u/ml, collagen 1.0 mg/ml): 295 s
time to coagulation (AWBCT) ([1]; LMWH 2.0 u/ml, saline): 500+ seconds

collagen
time to coagulation (AWBCT) ([1]; collagen 0.125 mg/ml): 178 s and 134 s and 140 s and 149 s
time to coagulation (AWBCT) ([1]; collagen 0.25 mg/ml): 162 s and 111 s and 125 s and 137 s
time to coagulation (AWBCT) ([1]; collagen 1.0 mg/ml): 34 seconds and 28* seconds and 24 seconds and 29 seconds
time to coagulation (AWBCT) ([2]; RCCWB 50 mins later, collagen 0.125 mg/ml): 190 s
time to coagulation (AWBCT) ([2]; RCCWB 50 mins later, collagen 0.25 mg/ml): 184 s
time to coagulation (AWBCT) ([2]; RCCWB 50 mins later, collagen 0.5 mg/ml): 181 s
time to coagulation (AWBCT) ([2]; RCCWB 50 mins later, collagen 1.0 mg/ml): 55 s
time to coagulation (AWBCT) ([2]; RCCWB 75 mins later, collagen 0.125 mg/ml): 202 s
time to coagulation (AWBCT) ([2]; RCCWB 75 mins later, collagen 0.25 mg/ml): 209 s
time to coagulation (AWBCT) ([2]; RCCWB 75 mins later, collagen 0.5 mg/ml): 70 s
time to coagulation (AWBCT) ([2]; RCCWB 75 mins later, collagen 1.0 mg/ml): 50 s
time to coagulation (AWBCT) ([2]; RCCWB, collagen 0.125 mg/ml): 166 s and 159 s and 177 s and 178 s
time to coagulation (AWBCT) ([2]; RCCWB, collagen 0.25 mg/ml): 185 seconds and 151 seconds and 165 seconds and 161* seconds
time to coagulation (AWBCT) ([2]; RCCWB, collagen 1.0 mg/ml): 44 s and 49 s and 39 s and 56 s
